# Measured values published in PubChem BioAssay AID330 (DTP/NCI, 2004).
# Values joined by “and” are separate entries in the source; they are usually repeats but may differ in a detail not shown here. Identical values can stand only once. Toxic doses and inconclusive results are not listed.
# Test system: P388 leukemia ip, CD2F1 mice, survival T/C
# Assay: NCI In Vivo Anticancer Drug Screen. Data for tumor model P388 Leukemia (intraperitoneal) in CD2F1 (CDF1) mice
# Conditions: endpoint: median survival time, higher = longer survival
# How it was run: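 Mice carrying the transplanted tumor received test compound or vehicle. Survival was recorded in each group, and the value is the treated-group measurement divided by that of the vehicle-treated control group.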
# [1] = dose: 12.5 mg/kg/injection, schedule: Q01DX009 (ip), vehicle: saline with Tween-80
# [2] = dose: 25.0 mg/kg/injection, schedule: Q01DX009 (ip), vehicle: saline with Tween-80
# [3] = dose: 50.0 mg/kg/injection, schedule: Q01DX009 (ip), vehicle: saline with Tween-80
# [4] = dose: 100.0 mg/kg/injection, schedule: Q01DX009 (ip), vehicle: saline with Tween-80
# [5] = dose: 60.0 mg/kg/injection, schedule: Q01DX005 (ip), vehicle: saline with Tween-80
# [6] = dose: 120.0 mg/kg/injection, schedule: Q01DX005 (ip), vehicle: saline with Tween-80
# [7] = dose: 240.0 mg/kg/injection, schedule: Q01DX005 (ip), vehicle: saline with Tween-80
# [8] = dose: 50.0 mg/kg/injection, schedule: Q01DX009 (ip), vehicle: saline
# [9] = dose: 100.0 mg/kg/injection, schedule: Q01DX009 (ip), vehicle: saline
structure (smiles),measurement,setting,value
CN1CCC(CC2CCCCN2)CC1 (stereo unspecified),T/C,"dose: 6.25 mg/kg/injection, schedule: Q01DX009 (ip), vehicle: distilled water + Tween-80",99 % of control
same,T/C,"dose: 12.5 mg/kg/injection, schedule: Q01DX009 (ip), vehicle: distilled water + Tween-80",105 % of control and 95 % of control
same,T/C,"dose: 25.0 mg/kg/injection, schedule: Q01DX009 (ip), vehicle: distilled water + Tween-80",98 % of control and 122 % of control
same,T/C,"dose: 50.0 mg/kg/injection, schedule: Q01DX009 (ip), vehicle: distilled water + Tween-80",108 % of control and 116 % of control
same,T/C,"dose: 100.0 mg/kg/injection, schedule: Q01DX009 (ip), vehicle: distilled water + Tween-80",103 % of control
Nc1ccc2cc3ccccc3cc2c1,T/C,"dose: 5.0 mg/kg/injection, schedule: Q01DX009 (ip), vehicle: saline with Tween-80",95 % of control
same,T/C,"dose: 5.0 mg/kg/injection, schedule: Q04DX003 (ip), vehicle: saline with Tween-80",95 % of control
same,T/C,"dose: 10.0 mg/kg/injection, schedule: Q01DX009 (ip), vehicle: saline with Tween-80",104 % of control
same,T/C,"dose: 10.0 mg/kg/injection, schedule: Q04DX003 (ip), vehicle: saline with Tween-80",91 % of control
same,T/C,[1],100 % of control
same,T/C,"dose: 20.0 mg/kg/injection, schedule: Q01DX009 (ip), vehicle: saline with Tween-80",118 % of control
same,T/C,"dose: 20.0 mg/kg/injection, schedule: Q04DX003 (ip), vehicle: saline with Tween-80",112 % of control
same,T/C,[2],109 % of control
same,T/C,"dose: 40.0 mg/kg/injection, schedule: Q01DX009 (ip), vehicle: saline with Tween-80",118 % of control
same,T/C,"dose: 40.0 mg/kg/injection, schedule: Q04DX003 (ip), vehicle: saline with Tween-80",112 % of control
same,T/C,[3],109 % of control
CN=C(N)N,T/C,"dose: 50.0 mg/kg/injection, schedule: Q01DX001 (ip), vehicle: saline",100 % of control
same,T/C,"dose: 100.0 mg/kg/injection, schedule: Q01DX001 (ip), vehicle: saline",98 % of control
same,T/C,"dose: 200.0 mg/kg/injection, schedule: Q01DX001 (ip), vehicle: saline",100 % of control
same,T/C,"dose: 400.0 mg/kg/injection, schedule: Q01DX001 (ip), vehicle: saline",101 % of control
CN1CC(CO)=CC2c3cccc4[nH]cc(c34)CC21 (stereo unspecified),T/C,[2],111 % of control
same,T/C,[3],104 % of control
same,T/C,[4],104 % of control
CN(CC(=O)O)c1ccc(/C=C/c2ccnc3ccccc23)cc1,T/C,"dose: 50.0 mg/kg/injection, schedule: Q01DX001 (ip), vehicle: saline with Tween-80",100 % of control
same,T/C,"dose: 100.0 mg/kg/injection, schedule: Q01DX001 (ip), vehicle: saline with Tween-80",97 % of control
same,T/C,"dose: 200.0 mg/kg/injection, schedule: Q01DX001 (ip), vehicle: saline with Tween-80",103 % of control
same,T/C,"dose: 400.0 mg/kg/injection, schedule: Q01DX001 (ip), vehicle: saline with Tween-80",101 % of control
COc1cccc(C(c2cc3c(cc2O)OCO3)N2CCCC2)c1O (stereo unspecified),T/C,"dose: 60.0 mg/kg/injection, schedule: Q01DX005 (ip), vehicle: Klucel (hydroxypropylcellulose) (HPC)",109 % of control
same,T/C,"dose: 120.0 mg/kg/injection, schedule: Q01DX005 (ip), vehicle: Klucel (hydroxypropylcellulose) (HPC)",109 % of control
same,T/C,"dose: 240.0 mg/kg/injection, schedule: Q01DX005 (ip), vehicle: Klucel (hydroxypropylcellulose) (HPC)",115 % of control
COC(=O)C1CCC(=O)N1Cc1csc(-c2ccccc2)n1 (stereo unspecified),T/C,[5],106 % of control
same,T/C,[6],100 % of control
same,T/C,[7],106 % of control
COC12c3c(C)cc(O)c4c(=O)occ(c34)C(=O)C1C13COC(=O)c4c(O)cc(C)c(c41)C(=O)C2C3OC(C)=O (stereo unspecified),T/C,[2],107 % of control and 119 % of control
same,T/C,[3],111 % of control and 122 % of control
same,T/C,[4],103 % of control and 120 % of control and 123 % of control
NC(=O)C(NC(=O)c1ccc([N+](=O)[O-])cc1)C(N)=O,T/C,"dose: 100.0 mg/kg/injection, schedule: Q04DX003 (ip), vehicle: saline",103 % of control
same,T/C,"dose: 200.0 mg/kg/injection, schedule: Q04DX003 (ip), vehicle: saline",103 % of control
same,T/C,"dose: 400.0 mg/kg/injection, schedule: Q04DX003 (ip), vehicle: saline",103 % of control
CN(C)CNC(=O)c1ccccc1,T/C,"dose: 1.25 mg/kg/injection, schedule: Q01DX009 (ip), vehicle: water",99 % of control
same,T/C,"dose: 2.5 mg/kg/injection, schedule: Q01DX009 (ip), vehicle: water",121 % of control
same,T/C,"dose: 5.0 mg/kg/injection, schedule: Q01DX009 (ip), vehicle: water",99 % of control
same,T/C,"dose: 10.0 mg/kg/injection, schedule: Q01DX009 (ip), vehicle: water",100 % of control
same,T/C,"dose: 20.0 mg/kg/injection, schedule: Q01DX009 (ip), vehicle: water",99 % of control
[Cl][Co][Cl].[NH-]CC[N-]CC[N-]CC[NH-],T/C,"dose: 12.5 mg/kg/injection, schedule: Q01DX005 (ip), vehicle: saline",100 % of control
same,T/C,"dose: 25.0 mg/kg/injection, schedule: Q01DX005 (ip), vehicle: saline",104 % of control
same,T/C,"dose: 50.0 mg/kg/injection, schedule: Q01DX005 (ip), vehicle: saline",114 % of control and 107 % of control and 113 % of control
same,T/C,[8],102 % of control
same,T/C,"dose: 100.0 mg/kg/injection, schedule: Q01DX005 (ip), vehicle: saline",109 % of control
same,T/C,[9],100 % of control
O=S(=O)(Nc1nccs1)c1ccc(NCc2c3ccccc3nc3cc(Cl)ccc23)cc1,T/C,"dose: 50.0 mg/kg/injection, schedule: Q01DX005 (ip), vehicle: saline with Tween-80",88 % of control
same,T/C,"dose: 100.0 mg/kg/injection, schedule: Q01DX005 (ip), vehicle: saline with Tween-80",88 % of control
same,T/C,"dose: 200.0 mg/kg/injection, schedule: Q01DX005 (ip), vehicle: saline with Tween-80",97 % of control
O=C(c1ccccc1)C1COc2ccccc2C1O (stereo unspecified),T/C,[5],109 % of control
same,T/C,[6],94 % of control
same,T/C,[7],94 % of control
CCCCCCC(/C=C/c1ccc(Cl)c(Cl)c1)=N\Nc1c(F)c(F)c(F)c(F)c1F,T/C,[3],86 % of control
same,T/C,[4],99 % of control
same,T/C,"dose: 200.0 mg/kg/injection, schedule: Q01DX009 (ip), vehicle: saline with Tween-80",98 % of control
CC1=NN(c2cc(S(=O)(=O)O)ccc2Cl)C(=O)C1,T/C,[8],101 % of control
same,T/C,[9],105 % of control
same,T/C,"dose: 200.0 mg/kg/injection, schedule: Q01DX009 (ip), vehicle: saline",97 % of control
O=C(O)c1nccc2ccccc12,T/C,[1],103 % of control
same,T/C,[2],103 % of control
same,T/C,[3],105 % of control
same,T/C,[4],106 % of control
C/C1=C/C(C)C(O)C(O)C(=O)C2(C)CNC3=C(O2)C(=O)c2c(cc(C)c(O)c2C1=O)C3=O (stereo unspecified),T/C,"dose: 0.5 mg/kg/injection, schedule: Q01DX009 (ip), vehicle: distilled water + Tween-80",102 % of control and 122 % of control
same,T/C,"dose: 1.0 mg/kg/injection, schedule: Q01DX009 (ip), vehicle: distilled water + Tween-80",106 % of control and 117 % of control
same,T/C,"dose: 2.0 mg/kg/injection, schedule: Q01DX009 (ip), vehicle: distilled water + Tween-80",108 % of control
same,T/C,"dose: 4.0 mg/kg/injection, schedule: Q01DX009 (ip), vehicle: distilled water + Tween-80",102 % of control and 103 % of control
same,T/C,"dose: 16.0 mg/kg/injection, schedule: Q01DX009 (ip), vehicle: distilled water + Tween-80",103 % of control and 107 % of control
same,T/C,"dose: 32.0 mg/kg/injection, schedule: Q01DX009 (ip), vehicle: distilled water + Tween-80",101 % of control and 103 % of control
same,T/C,"dose: 4.0 micrograms/kg/injection, schedule: Q01DX009 (ip), vehicle: water",115 % of control
same,T/C,"dose: 8.0 micrograms/kg/injection, schedule: Q01DX009 (ip), vehicle: water",99 % of control
same,T/C,"dose: 16.0 micrograms/kg/injection, schedule: Q01DX009 (ip), vehicle: water",98 % of control
same,T/C,"dose: 32.0 micrograms/kg/injection, schedule: Q01DX009 (ip), vehicle: water",99 % of control
same,T/C,"dose: 64.0 micrograms/kg/injection, schedule: Q01DX009 (ip), vehicle: saline + alcohol",100 % of control
same,T/C,"dose: 64.0 micrograms/kg/injection, schedule: Q01DX009 (ip), vehicle: water",102 % of control
same,T/C,"dose: 128.0 micrograms/kg/injection, schedule: Q01DX009 (ip), vehicle: saline + alcohol",100 % of control
same,T/C,"dose: 256.0 micrograms/kg/injection, schedule: Q01DX009 (ip), vehicle: saline + alcohol",103 % of control
[CH3][Sn]([Cl])([Cl])[c]1ccccc1,T/C,"dose: 1.56 mg/kg/injection, schedule: Q04DX003 (ip), vehicle: saline",114 % of control
same,T/C,"dose: 3.12 mg/kg/injection, schedule: Q04DX003 (ip), vehicle: saline",109 % of control
same,T/C,"dose: 6.25 mg/kg/injection, schedule: Q04DX003 (ip), vehicle: saline",106 % of control and 117 % of control
COC(=O)Nc1nc2ccc(C(=O)OC(C)C)cc2[nH]1,T/C,"dose: 100.0 mg/kg/injection, schedule: Q04DX003 (ip), vehicle: saline with Tween-80",111 % of control and 116 % of control
same,T/C,"dose: 200.0 mg/kg/injection, schedule: Q04DX003 (ip), vehicle: saline with Tween-80",118 % of control
same,T/C,"dose: 800.0 mg/kg/injection, schedule: Q04DX003 (ip), vehicle: saline with Tween-80",155 % of control
